Results: patent US12384923B2, “Method of treatment of a surface” (Conopco, Inc., priority 2018, dated 2025)

Tested on: Raphidocelis subcapitata
Experiment: Algal growth inhibition by lactam (absorbance at 680 nm of algal cultures in 6-well plates)
Type: cell-based
Method: The freshwater algae Raphidocelis subcapitata was purchased from Culture Collection of Algae and Protozoa (CCAP 278/4). The algae was cultivated in commercial Gibco BG-11 Media. A bespoke built UV exposure cabinet was used for cultivation. The UV bulbs were replaced by light bulbs (Osram L 8W I535 white). The experiments were performed in sterile 6-well microtiter plates made from polystyrene under static conditions and room temperature. The light-dark cycle was 9 h dark and 15 h light. The quantification was done spectrophotometrically in the 6-well plate by using absorbance measurements. A wavelength scan was done to measure the absorbance maximum of the algaea. […] Since the algaea tend to sediment the plate was obitally shaken to bring the cells in suspension before measuring. Measuring was performed using a Varioscan plate reader for microtiter plates.
In this experiment, the algal cultures were treated with lactam at levels of 10 μM to 200 μM as well as two control plates, one untreated, and one treated with solvent (DMSO) only. The specific levels of lactam measured were 10 μM, 20 μM, 30 μM, 40 μM, 50 μM, 100 μM, 150 μM, 200 μM would equate to levels of from 2 ppm (10 μM) to 40 ppm (200 μM), and to wt. % of 0.0002 wt. % (10 μM) to 0.004 wt. % (200 μM). The lactam was provided in a DMSO solvent to the plates. The rate of growth of the algal culture was measured after 12 days by absorbance value.
In this experiment, the algal cultures were treated with lactam at levels of 0.01 μM to 10 μM as well as two control plates, one untreated, and one treated with solvent (DMSO) only. The specific levels of lactam measured were 0.01 μM, 0.1 μM, 1 μM, 10 μM, this would equate to levels of from 0.002 ppm also defined as 2 ppb (0.01 μM) to 2 ppm (10 μM), and to wt. % of 0.0000002 wt. % (0.01 μM) to 0.0002 wt. % (10 μM). The lactam was provided in a DMSO solvent to the plates. The rate of growth of the algal culture was measured after 6 days by absorbance value.

C=C1NC(=O)C=C1c1ccc(Cl)cc1 [4-(4-chlorophenyl)-5-methylene-pyrrol-2-one]
Absorbance (680 nm) (Example 2, lactam 10 μM, after 12 days): 0.1
Absorbance (680 nm) (Example 2, lactam 20 μM, after 12 days): 0.1
Absorbance (680 nm) (Example 2, lactam 30 μM, after 12 days): 0.1
Absorbance (680 nm) (Example 2, lactam 40 μM, after 12 days): 0.1
Absorbance (680 nm) (Example 2, lactam 50 μM, after 12 days): 0.1
Absorbance (680 nm) (Example 2, lactam 100 μM, after 12 days): 0.1
Absorbance (680 nm) (Example 2, lactam 150 μM, after 12 days): 0.1
Absorbance (680 nm) (Example 2, lactam 200 μM, after 12 days): 0.1
algal growth inhibition (in words) (Example 2, lactam level of 10 μM (0.0002 wt. %) and above, 12 days): very effective algal growth inhibition
Absorbance (680 nm) (Example 3, lactam 0.01 μM, after 6 days): 0.8
Absorbance (680 nm) (Example 3, lactam 0.1 μM, after 6 days): 0.9
algal growth inhibition (in words) (Example 3, lactam 1 μM, 6 days): no algal growth inhibition was seen
Absorbance (680 nm) (Example 3, lactam 1 μM, after 6 days): 0.9
Absorbance (680 nm) (Example 3, lactam 10 μM, after 6 days): 0.1
algal growth inhibition (in words) (Example 3, lactam amount even lower than 1 μM (0.1 μM, 0.01 μM), 6 days): no algal growth inhibition was seen
algal growth inhibition (in words) (Example 3, lactam level of 10 μM (0.0002 wt. %) and above, 6 days): very effective algal growth inhibition
